This is an account of results in ChEMBL document CHEMBL1821723 (J Med Chem, 2011).

In general, fraction remaining refers to the share of the starting amount still present when the sample was taken. Low readings indicate more turnover, high ones less turnover.

The nature of this data set: in vitro. The note with it: human, liver microsomes. For orientation: Liver microsomes are vesicles of endoplasmic reticulum, rich in cytochrome P450 enzymes.

Description: Metabolic stability in human liver microsome assessed as compound remaining after 30 mins

Compound `CC(Oc1cc(-c2cnn(C(C)(C)C(=O)NCCN(C)C)c2)cnc1N)c1c(Cl)ccc(F)c1Cl` (racemic) returned an amount remaining at 0.5 h of 3.6%. With `CC(Oc1cc(-c2cnn(C3CCCNC3)c2)cnc1N)c1c(Cl)ccc(F)c1Cl` (racemic) the figure was 44.3%; with `CC(Oc1cc(-c2cnn(CC3CN(CC(N)=O)C3)c2)cnc1N)c1c(Cl)ccc(F)c1Cl` (racemic), 47.8%; with `CC(Oc1cc(-c2cnn(CC3(O)CCOCC3)c2)cnc1N)c1c(Cl)ccc(F)c1Cl` (racemic), 0.9%. Turning to `CC(Oc1cc(-c2cnn(CC3CNC3)c2)cnc1N)c1c(Cl)ccc(F)c1Cl` (racemic), the share remaining at 0.5 h was determined as 71%. The compound `CC(Oc1cc(-c2cnn(C3CNC3)c2)cnc1N)c1c(Cl)ccc(F)c1Cl` (racemic) had a fraction remaining at 0.5 h of 44%. As to `CC(Oc1cc(-c2cnn(CC(=O)NCCCN(C)C)c2)cnc1N)c1c(Cl)ccc(F)c1Cl` (racemic), the fraction remaining at 0.5 h is 23.8%. With `CC(Oc1cc(-c2cnn(C(C)C)c2)cnc1N)c1c(Cl)ccc(F)c1Cl` (racemic) the figure was 3.2%; with `CC(Oc1cc(-c2cnn(C)c2)cnc1N)c1c(Cl)ccc(F)c1Cl` (racemic), 5.2%.
